Experimental data as given in PMC4794675, “Generation and Characterization of Monoclonal Antibodies against a Cyclic Variant of Hepatitis C Virus E2 Epitope 412-422” (Journal of Virology, 2016).
Bridge positions count the residues as written; N and C are the ends. Peptide text beside a SMILES is read from it.

System: Fab C2
Test: SPR epitope mapping: binding of epitope I peptide variants to immobilized Fab C2
Parameters: species or system mouse; Ka, binding to Fab C2: unit not given here
Conditions: for Ka, binding to Fab C2 / Kd, binding to Fab C2: Fab C2 immobilized on CM5 chip, 25°C; for Kd: read-out: KD, binding to Fab C2, Fab C2 immobilized on CM5 chip, peptides 125 nM to 5 μM, HBS buffer, 25°C, NB = no binding
Protocol: All SPR analyses were performed on a Biacore 3000 instrument from GE Healthcare, using CM5 sensor chips and the HBS buffer certified for use with this instrument (20 mM HEPES, 0.15 M NaCl, pH 7.2, 0.005% polysorbate 20), at 25°C. Immobilization was carried out by means of the canonical amine-coupling chemistry using the surface immobilization wizard procedure operating at 5 μl/min. Channels were activated with a mixture of 1-ethyl-3-(3-dimethylaminopropyl)-carbodiimide and N-hydroxysuccinimide for 7 min; then, the ligand, which had been appropriately diluted in the preselected sodium acetate buffer, was coupled until a typical level of 500 to 600 response units (RU) was achieved. The remaining active ester groups were blocked with 1 M ethanolamine HCl, pH 8.5. […] The same procedure was applied to prepare an sE2-functionalized sensor chip. An IgG1 isotype-matched antibody was used as a negative control at a concentration of 5.0 μM. […] An underivatized surface was prepared on every sensor chip and used as a blank control. All analyses were carried out at a flow rate of 20 μl/min, and a constant volume of 60 μl of protein or peptide solution appropriately diluted in the HBS running buffer was injected.
For every analysis, experimental sensorgrams were aligned, the blank signal was subtracted, and the sensorgrams were overlapped. All mathematical manipulations and fitting of the data were performed using BIAevaluation (version 4.1) software (GE Healthcare).
To further investigate which peptide residues were mostly involved in the binding with the antibodies, we designed and prepared a panel of alanine-mutated cyclic peptides (Table 4). […] All peptides were tested at concentrations ranging from 125 nM to 5 μM.

Row | Compound | Ka, binding to Fab C2 (peptides 125 nM to 5 μM) | Kd, binding to Fab C2 (peptides 125 nM to 5 μM) [M⁻¹ s⁻¹] | affinity/binding to Fab C2 relative to wild type (Fab C2 immobilized, peptides 125 nM to 5 μM) | Kd [µM]
1 | CC[C@H](C)[C@@H]1NC(=O)[C@H](Cc2c[nH]cn2)NC(=O)[C@H](Cc2c[nH]c3ccccc23)NC(=O)[C@H](CCC(=O)O)NC(=O)[C@H](CCC(=O)O)NC(=O)[C@H](CC(N)=O)NC(=O)[C@H]([C@@H](C)O)NC(=O)[C@H](CC(N)=O)NC(=O)[C@H]([C@@H](C)CC)NC(=O)[C@H](CC(C)C)NC(=O)[C@H](CCC(N)=O)NC(=O)[C@@H](NC(=O)[C@H](CCCCN)NC(=O)[C@H](CCCCN)NC(C)=O)CSSC[C@@H](C(N)=O)NC1=O [C-epitope I mutant III] (Ac-KKCQLINTNEEWHIC-NH2; disulfide 3-15; N-terminus and C-terminus assumed) | 16200 s⁻¹ | 0.0754 |  | 
2 | CC[C@H](C)[C@@H]1NC(=O)[C@H](CC(C)C)NC(=O)[C@H](CCC(N)=O)NC(=O)[C@@H](NC(=O)[C@H](CCCCN)NC(=O)[C@H](CCCCN)NC(C)=O)CSSC[C@@H](C(N)=O)NC(=O)[C@H]([C@@H](C)CC)NC(=O)[C@H](Cc2c[nH]cn2)NC(=O)[C@H](Cc2c[nH]c3ccccc23)NC(=O)[C@H](CO)NC(=O)CNC(=O)[C@H](C)NC(=O)[C@H](C)NC(=O)[C@H](C)NC1=O [C-epitope I mutant II] (Ac-KKCQLIAAAGSWHIC-NH2; disulfide 3-15; N-terminus and C-terminus assumed) | 3200 s⁻¹ | 4.73e-05 |  | 
3 | CC[C@H](C)[C@@H]1NC(=O)[C@H](CC(C)C)NC(=O)[C@H](CCC(N)=O)NC(=O)[C@@H](NC(=O)[C@H](CCCCN)NC(=O)[C@H](CCCCN)NC(C)=O)CSSC[C@@H](C(N)=O)NC(=O)[C@H](C)NC(=O)[C@H](C)NC(=O)[C@H](C)NC(=O)[C@H](CO)NC(=O)CNC(=O)[C@H](CC(N)=O)NC(=O)[C@H]([C@@H](C)O)NC(=O)[C@H](CC(N)=O)NC1=O [C-epitope I mutant IV] (Ac-KKCQLINTNGSAAAC-NH2; disulfide 3-15; N-terminus and C-terminus assumed) | 0 | 0 | abolished | > 5
4 | CC[C@H](C)[C@@H]1NC(=O)[C@H](Cc2c[nH]cn2)NC(=O)[C@H](Cc2c[nH]c3ccccc23)NC(=O)[C@H](CO)NC(=O)CNC(=O)[C@H](CC(N)=O)NC(=O)[C@H]([C@@H](C)O)NC(=O)[C@H](CC(N)=O)NC(=O)[C@H](C)NC(=O)[C@H](C)NC(=O)[C@H](C)NC(=O)[C@@H](NC(=O)[C@H](CCCCN)NC(=O)[C@H](CCCCN)NC(C)=O)CSSC[C@@H](C(N)=O)NC1=O [C-epitope I mutant I] (Ac-KKCAAANTNGSWHIC-NH2; disulfide 3-15; N-terminus and C-terminus assumed) | 1.22e+06 s⁻¹ | 0.553 |  | 
5 | CC[C@H](C)[C@H](NC(=O)[C@H](Cc1c[nH]cn1)NC(=O)[C@H](Cc1c[nH]c2ccccc12)NC(=O)[C@H](CO)NC(=O)CNC(=O)[C@H](CC(N)=O)NC(=O)[C@@H](NC(=O)[C@H](CC(N)=O)NC(=O)[C@@H](NC(=O)[C@H](CC(C)C)NC(=O)[C@H](CCC(N)=O)NC(=O)[C@H](CSC)NC(=O)[C@H](CCCCN)NC(=O)[C@H](CCCCN)NC(C)=O)[C@@H](C)CC)[C@@H](C)O)C(=O)N[C@@H](CSC)C(N)=O [L-epitope I] (Ac-KKC(Me)QLINTNGSWHIC(Me)-NH2; N-terminus and C-terminus assumed) | 0 | 0 |  | > 5
